Measurements published in patent publication US9499519B2, “Fused pyrimidine compounds and use thereof” (Medivation Technologies, Inc., priority 2012, dated 2016).
Values joined by “and” are separate entries in the source; they are usually repeats but may differ in a detail not shown here. Identical values can stand only once.

Key:
Format in all cases: biochemical
Trk B = Trk B (Homo sapiens, UniProt Q16620); assay: HotSpot kinase assay: Trk B; settings: 100 nM compound, read-out: % Enzyme Inhibition @ 100 nM Trk B
Sequence of Trk B (Q16620 32-822): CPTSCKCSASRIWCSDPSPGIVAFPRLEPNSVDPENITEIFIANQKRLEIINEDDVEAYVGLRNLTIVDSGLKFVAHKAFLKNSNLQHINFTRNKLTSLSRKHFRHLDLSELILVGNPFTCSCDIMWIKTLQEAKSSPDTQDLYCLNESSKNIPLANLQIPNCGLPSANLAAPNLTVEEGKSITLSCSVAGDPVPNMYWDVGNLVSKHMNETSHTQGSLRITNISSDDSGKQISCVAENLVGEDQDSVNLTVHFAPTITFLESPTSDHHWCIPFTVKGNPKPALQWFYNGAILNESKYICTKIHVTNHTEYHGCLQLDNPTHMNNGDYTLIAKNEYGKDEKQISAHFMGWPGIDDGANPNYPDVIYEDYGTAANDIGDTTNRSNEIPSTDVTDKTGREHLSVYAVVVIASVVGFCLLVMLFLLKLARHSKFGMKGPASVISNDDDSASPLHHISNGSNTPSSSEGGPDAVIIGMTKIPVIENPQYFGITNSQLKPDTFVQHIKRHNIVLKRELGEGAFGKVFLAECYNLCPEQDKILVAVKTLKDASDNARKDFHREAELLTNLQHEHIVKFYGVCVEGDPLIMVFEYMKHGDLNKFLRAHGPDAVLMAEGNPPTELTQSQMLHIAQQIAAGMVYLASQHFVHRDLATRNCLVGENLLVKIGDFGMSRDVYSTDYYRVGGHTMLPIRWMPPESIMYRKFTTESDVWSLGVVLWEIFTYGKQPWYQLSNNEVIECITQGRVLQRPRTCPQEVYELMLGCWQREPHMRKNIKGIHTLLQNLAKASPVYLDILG
Method: (§1) Each compound was tested at a concentration of 0.1 μM in single duplicate mode against the 3 kinases. Compounds were prepared as 10 mM stock solutions in DMSO prior to use in the assay. […] IC50 values and curve fits were obtained using Prism (GraphPad Software).
(§2) The screening was performed using the “HotSpot” assay platform. The assay measures the conversion of a peptide substrate to ^33P-labelled phosphorylated product. Briefly, specific kinase/substrate pairs along with required cofactors were prepared in reaction buffer. Specifically, the substrate was prepared in reaction buffer (20 mM Hepes, pH 7.5; 10 mM MgCl2; 1 mM EGTA; 0.02% Brij35; 0.02 mg/mL BSA; 0.1 mM Na3VO4; 2 mM DTT; 1% DMSO), followed by delivery of any required cofactor to the resulting substrate solution. The corresponding kinase was delivered into the substrate solution and the reaction mixture was mixed gently. Compound was delivered into the reaction mixture, followed 15-20 minutes later by addition of a mixture of ATP (Sigma, St. Louis Mo.) and ^33P ATP (specific activity 0.01 μCi/μL final; Perkin Elmer, Waltham, Mass.) to a final concentration of 10 μM-30 μM to initiate the reaction. […] The percent of enzyme inhibition was calculated based on the percent of remaining kinase activity.

Trk A = Trk A (Homo sapiens, UniProt P04629); assay: HotSpot kinase assay: Trk A; settings: 100 nM compound, read-out: % Enzyme Inhibition @ 100 nM Trk A
Sequence of Trk A (P04629 33-796): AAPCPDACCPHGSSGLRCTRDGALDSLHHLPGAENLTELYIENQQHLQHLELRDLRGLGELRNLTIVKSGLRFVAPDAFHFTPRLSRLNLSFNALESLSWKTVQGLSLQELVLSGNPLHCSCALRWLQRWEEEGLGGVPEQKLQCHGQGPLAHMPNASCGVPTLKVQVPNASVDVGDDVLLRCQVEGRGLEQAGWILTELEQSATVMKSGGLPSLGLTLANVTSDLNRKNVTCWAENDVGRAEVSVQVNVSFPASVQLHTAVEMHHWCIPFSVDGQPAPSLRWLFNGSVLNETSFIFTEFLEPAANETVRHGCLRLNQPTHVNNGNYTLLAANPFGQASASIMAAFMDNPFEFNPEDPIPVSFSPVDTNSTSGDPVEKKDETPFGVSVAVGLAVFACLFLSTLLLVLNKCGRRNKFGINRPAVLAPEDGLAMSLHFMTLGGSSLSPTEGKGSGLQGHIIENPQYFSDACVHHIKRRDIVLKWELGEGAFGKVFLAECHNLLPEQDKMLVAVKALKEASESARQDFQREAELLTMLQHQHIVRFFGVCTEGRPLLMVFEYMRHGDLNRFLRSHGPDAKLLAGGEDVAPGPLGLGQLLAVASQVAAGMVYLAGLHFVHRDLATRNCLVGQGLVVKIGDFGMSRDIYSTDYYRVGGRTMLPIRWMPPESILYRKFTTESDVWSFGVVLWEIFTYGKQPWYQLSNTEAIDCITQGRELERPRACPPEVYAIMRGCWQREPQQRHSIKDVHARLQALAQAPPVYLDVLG
Method: as §1, with “Kinase assays were performed using additional compounds against a panel of 3 kinases: Trk A; Trk B; and Trk C. Each” for “Each”, “Software). […]” for “Software).”
The screening was performed using the “HotSpot” assay platform. The assay measures the conversion of a peptide substrate to ^33P-labelled phosphorylated product. Briefly, specific kinase/substrate pairs along with required cofactors were prepared in reaction buffer. Specifically, the substrate was prepared in reaction buffer (20 mM Hepes, pH 7.5; 10 mM MgCl2; 1 mM EGTA; 0.02% Brij35; 0.02 mg/mL BSA; 0.1 mM Na3VO4; 2 mM DTT; 1% DMSO), followed by delivery of any required cofactor to the resulting substrate solution. The corresponding kinase was delivered into the substrate solution and the reaction mixture was mixed gently. Compound was delivered into the reaction mixture, followed 15-20 minutes later by addition of a mixture of ATP (Sigma, St. Louis Mo.) and ^33P ATP (specific activity 0.01 μCi/μL final; Perkin Elmer, Waltham, Mass.) to a final concentration of 10 μM-30 μM to initiate the reaction. Reactions were carried out at room temperature for 120 minutes, followed by spotting of the reactions onto P81 ion exchange filter paper (Whatman #3698-915; Whatman Inc., Piscataway, N.J.). Unbound phosphate was removed by extensive washing of filters in 0.75% phosphoric acid. […] The percent of enzyme inhibition was calculated based on the percent of remaining kinase activity.

AXL = target: T1, AXL (Homo sapiens, UniProt P30530); assay: HotSpot kinase assay: AXL; settings: 100 nM compound, read-out: % Enzyme Inhibition @ 100 nM AXL
T1 sequence (P30530 26-894): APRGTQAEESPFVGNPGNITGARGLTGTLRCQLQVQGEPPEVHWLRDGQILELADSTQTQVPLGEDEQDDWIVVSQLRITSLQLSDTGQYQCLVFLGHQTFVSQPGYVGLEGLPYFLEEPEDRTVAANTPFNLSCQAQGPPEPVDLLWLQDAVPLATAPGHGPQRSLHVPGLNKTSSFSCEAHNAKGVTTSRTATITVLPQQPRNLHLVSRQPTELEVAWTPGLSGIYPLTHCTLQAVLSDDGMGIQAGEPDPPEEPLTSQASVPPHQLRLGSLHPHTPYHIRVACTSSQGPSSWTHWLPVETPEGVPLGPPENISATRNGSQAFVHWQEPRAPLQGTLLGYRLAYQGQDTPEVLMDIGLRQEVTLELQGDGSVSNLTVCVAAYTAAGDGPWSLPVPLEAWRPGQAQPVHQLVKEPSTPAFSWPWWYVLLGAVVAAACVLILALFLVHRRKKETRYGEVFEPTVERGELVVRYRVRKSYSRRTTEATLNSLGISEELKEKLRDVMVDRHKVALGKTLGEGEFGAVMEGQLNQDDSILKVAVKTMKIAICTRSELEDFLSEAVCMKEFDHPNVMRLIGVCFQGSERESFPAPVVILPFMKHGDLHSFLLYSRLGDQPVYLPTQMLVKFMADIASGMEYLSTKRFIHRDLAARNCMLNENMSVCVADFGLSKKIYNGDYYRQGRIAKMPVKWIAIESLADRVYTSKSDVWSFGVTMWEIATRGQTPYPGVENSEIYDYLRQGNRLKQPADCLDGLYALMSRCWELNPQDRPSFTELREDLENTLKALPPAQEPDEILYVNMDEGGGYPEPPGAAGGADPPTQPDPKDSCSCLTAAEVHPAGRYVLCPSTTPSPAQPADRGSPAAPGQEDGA
Method: as §1, with “Kinase assays were performed using additional compounds against a panel of 4 kinases: AXL; c-Met; c-Mer; and Trk C. Each” for “Each”, “[…]” for “μM”, “4” for “3”
as §2

Trk C = Trk C (Homo sapiens, UniProt Q16288); assay: HotSpot kinase assay: Trk C
Sequence of Trk C (Q16288 32-839): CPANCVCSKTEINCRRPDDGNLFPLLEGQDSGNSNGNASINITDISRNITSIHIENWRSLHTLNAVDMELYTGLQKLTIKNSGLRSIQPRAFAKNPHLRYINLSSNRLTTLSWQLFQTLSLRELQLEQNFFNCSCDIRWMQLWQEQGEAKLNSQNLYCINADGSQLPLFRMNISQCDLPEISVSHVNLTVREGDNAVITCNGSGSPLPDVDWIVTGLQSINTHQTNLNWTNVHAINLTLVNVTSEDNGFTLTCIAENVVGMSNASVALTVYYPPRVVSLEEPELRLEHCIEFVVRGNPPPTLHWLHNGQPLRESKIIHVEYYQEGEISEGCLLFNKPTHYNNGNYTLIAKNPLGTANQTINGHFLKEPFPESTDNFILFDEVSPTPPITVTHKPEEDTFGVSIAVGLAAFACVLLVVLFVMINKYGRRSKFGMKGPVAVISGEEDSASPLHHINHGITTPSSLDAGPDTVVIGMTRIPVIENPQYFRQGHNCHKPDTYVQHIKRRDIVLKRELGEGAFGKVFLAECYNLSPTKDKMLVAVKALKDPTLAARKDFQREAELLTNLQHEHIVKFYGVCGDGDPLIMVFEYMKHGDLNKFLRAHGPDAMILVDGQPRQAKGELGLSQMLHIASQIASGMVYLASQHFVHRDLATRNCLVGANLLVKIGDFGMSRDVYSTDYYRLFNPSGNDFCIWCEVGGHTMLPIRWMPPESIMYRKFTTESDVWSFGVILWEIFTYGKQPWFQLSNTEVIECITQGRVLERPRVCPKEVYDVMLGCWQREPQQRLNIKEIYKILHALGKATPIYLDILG

c-Met = c-Met (Homo sapiens, UniProt P08581); assay: HotSpot kinase assay: c-Met; settings: 100 nM compound, read-out: % Enzyme Inhibition @ 100 nM c-MET
Method: as §1, with “Kinase assays were performed using additional compounds against a panel of 4 kinases: AXL; c-Met; c-Mer; and Trk C. Each” for “Each”, “[…]” for “μM”, “4” for “3”
as §2

IGF-1R = target: T2, IGF-1R (Homo sapiens, UniProt P08069); assay: In vitro IGF-1R enzymatic assay (ADP-Glo kinase assay); settings: activated IGF-1R
T2 construct: purchased Millipore 14-802
T2 sequence (P08069 31-1367): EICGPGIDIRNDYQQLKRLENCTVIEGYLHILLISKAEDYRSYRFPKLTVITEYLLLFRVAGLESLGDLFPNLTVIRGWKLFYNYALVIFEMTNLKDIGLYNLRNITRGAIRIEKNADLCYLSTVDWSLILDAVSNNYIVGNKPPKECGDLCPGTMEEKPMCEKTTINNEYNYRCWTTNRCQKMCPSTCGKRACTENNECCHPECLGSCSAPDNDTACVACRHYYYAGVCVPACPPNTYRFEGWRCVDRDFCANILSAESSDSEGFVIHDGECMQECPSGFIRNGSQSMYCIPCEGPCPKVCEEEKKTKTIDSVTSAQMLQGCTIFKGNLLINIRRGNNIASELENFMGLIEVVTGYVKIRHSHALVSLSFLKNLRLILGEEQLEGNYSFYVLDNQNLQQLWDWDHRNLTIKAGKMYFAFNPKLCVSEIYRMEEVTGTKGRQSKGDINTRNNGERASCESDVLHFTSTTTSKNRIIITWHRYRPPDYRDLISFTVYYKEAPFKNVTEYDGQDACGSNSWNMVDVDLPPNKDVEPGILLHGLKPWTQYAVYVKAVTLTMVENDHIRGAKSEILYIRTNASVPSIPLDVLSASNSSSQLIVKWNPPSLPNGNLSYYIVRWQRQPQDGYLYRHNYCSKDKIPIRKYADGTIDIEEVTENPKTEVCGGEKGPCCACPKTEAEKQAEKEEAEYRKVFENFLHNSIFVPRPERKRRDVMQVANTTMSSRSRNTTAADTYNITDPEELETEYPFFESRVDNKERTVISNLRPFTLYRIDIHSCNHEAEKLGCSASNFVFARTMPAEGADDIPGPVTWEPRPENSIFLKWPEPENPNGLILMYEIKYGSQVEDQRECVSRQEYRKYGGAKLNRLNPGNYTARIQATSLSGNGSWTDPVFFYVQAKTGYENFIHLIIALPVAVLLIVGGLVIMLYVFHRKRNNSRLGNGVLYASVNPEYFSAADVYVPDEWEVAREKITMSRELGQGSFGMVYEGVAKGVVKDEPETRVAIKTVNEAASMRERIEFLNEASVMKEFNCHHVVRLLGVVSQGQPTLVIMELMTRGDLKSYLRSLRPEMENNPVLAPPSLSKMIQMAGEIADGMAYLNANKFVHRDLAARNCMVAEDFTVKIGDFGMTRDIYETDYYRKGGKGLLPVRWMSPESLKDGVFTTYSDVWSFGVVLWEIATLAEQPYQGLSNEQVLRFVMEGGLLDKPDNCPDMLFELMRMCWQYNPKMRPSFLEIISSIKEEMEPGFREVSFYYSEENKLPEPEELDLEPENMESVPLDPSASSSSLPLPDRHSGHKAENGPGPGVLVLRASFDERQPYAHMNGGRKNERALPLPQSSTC
Method: (§3) IC50 values of the compounds of the invention against IGF-1R and IR were measured in vitro using an ADP-Glo kinase assay Kit (Promega). […] Kinase reactions in both assays were conducted at 30° C. for 20 min with increasing concentrations of compounds of the invention.
Additional compounds of the invention were screened against activated IGF-1R.

IR = target: T3, IR (Homo sapiens, UniProt P06213); assay: In vitro IR enzymatic assay (ADP-Glo kinase assay); settings: activated IR
T3 construct: purchased Millipore 14-803
T3 sequence (P06213 28-1382): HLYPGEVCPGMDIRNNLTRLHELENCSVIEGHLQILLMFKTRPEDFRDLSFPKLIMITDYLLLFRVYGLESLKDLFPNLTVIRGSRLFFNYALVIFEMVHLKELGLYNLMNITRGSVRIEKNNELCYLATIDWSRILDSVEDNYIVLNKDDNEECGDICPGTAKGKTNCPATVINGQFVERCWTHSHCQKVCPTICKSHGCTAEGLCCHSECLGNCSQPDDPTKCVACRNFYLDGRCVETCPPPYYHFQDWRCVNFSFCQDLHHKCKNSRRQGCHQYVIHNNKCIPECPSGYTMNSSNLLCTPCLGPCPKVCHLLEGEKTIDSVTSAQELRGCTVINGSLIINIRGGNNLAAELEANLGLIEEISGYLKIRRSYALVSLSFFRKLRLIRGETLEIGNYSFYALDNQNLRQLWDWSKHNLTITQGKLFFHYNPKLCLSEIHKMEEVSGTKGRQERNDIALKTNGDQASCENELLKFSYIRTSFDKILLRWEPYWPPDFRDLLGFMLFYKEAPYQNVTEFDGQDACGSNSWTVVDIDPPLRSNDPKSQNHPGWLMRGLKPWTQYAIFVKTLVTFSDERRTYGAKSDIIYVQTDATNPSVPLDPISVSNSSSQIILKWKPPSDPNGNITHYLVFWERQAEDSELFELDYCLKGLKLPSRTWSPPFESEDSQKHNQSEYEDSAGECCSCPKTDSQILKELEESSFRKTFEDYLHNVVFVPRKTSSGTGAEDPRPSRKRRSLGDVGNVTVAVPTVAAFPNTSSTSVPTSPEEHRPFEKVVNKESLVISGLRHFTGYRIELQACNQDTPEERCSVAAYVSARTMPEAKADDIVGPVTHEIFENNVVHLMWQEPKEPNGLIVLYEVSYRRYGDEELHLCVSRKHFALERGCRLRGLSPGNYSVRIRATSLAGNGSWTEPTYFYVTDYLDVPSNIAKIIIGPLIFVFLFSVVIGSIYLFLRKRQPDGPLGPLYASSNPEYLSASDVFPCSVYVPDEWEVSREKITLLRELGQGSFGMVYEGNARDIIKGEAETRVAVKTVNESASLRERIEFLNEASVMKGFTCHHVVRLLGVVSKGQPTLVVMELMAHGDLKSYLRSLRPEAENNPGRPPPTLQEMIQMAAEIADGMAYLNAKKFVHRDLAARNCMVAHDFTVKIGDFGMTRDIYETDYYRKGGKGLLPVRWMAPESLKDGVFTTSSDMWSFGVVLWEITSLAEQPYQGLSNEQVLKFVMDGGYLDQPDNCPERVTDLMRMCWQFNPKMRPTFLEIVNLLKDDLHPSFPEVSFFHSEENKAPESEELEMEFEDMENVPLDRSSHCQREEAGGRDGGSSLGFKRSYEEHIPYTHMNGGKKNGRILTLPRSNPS
Method: as §3
Additional compounds of the invention were screened against activated IR.

inhibition at 0.1 µM (Trk B): < 39% | inhibition at 0.1 µM (Trk A): < 39% | inhibition at 0.1 µM (AXL): < 39% | inhibition at 0.1 µM (Trk C; 100 nM compound, HotSpot, read-out: % Enzyme Inhibition @ 100 nM Trk C): > 60% | IC50 (Trk C; Trk C): 0.0551 µM | selectivity for Trk C inhibition over IGF-1R (Trk C; Trk C over IGF-1R): about 60 fold | selectivity for Trk C inhibition over IR (Trk C; Trk C over IR): about 30 fold | inhibition at 0.1 µM (c-Met): < 39% | IC50 (IGF-1R): 3.2 µM | inhibition at 0.03 µM (IGF-1R; 30 nM, average, read-out: % Inh @ 30 nM Avg): 9% | IC50 (IR): 1.8 µM and 1.7 µM
Structure (SMILES): CC(C)c1cc(Nc2nc(N3CCCC3C(=O)N(C)C)nc3c2CCC3)n[nH]1 (single isomer, unassigned) [Compound 20b, 1-(4-(5-isopropyl-1H-pyrazol-3-ylamino)-6,7-dihydro-5H-cyclopenta[d]pyrimidin-2-yl)-N,N-dimethylpyrrolidine-2-carboxamide]
